From patent publication US4447440A, “Sulphenamides-containing lipoxygenase inhibiting agents and their use in pharmaceutical compositions” (Bayer Aktiengesellschaft, priority 1981, dated 1984)

How the values were obtained:
leucocytes (migration) = assay: Inhibition of the migration of leucocytes, sponge soaked in active compound introduced under the dorsal skin of rats; format: in vivo; conditions: rat, local dose 10 mg/rat; for inhibition in vivo at 10 mg: Leucocyte, read-out: Inhibition of the migration of leucocytes (control = 0%)
Description: The sulphenamides used according to the present invention are also active in vivo. […] Table 2 which follows summarises the activities of some illustrative sulphenamides after local administration, by introduction of a piece of sponge soaked in the active compound under the dorsal skin of rats.

platelet lipoxygenase = target: T1, platelet lipoxygenase (Homo sapiens, UniProt P18054); assay: Inhibition of the platelet lipoxygenase (synthesis of HETE), metabolism of radioactively labelled arachidonic acid by washed human platelets; format: cell-based; conditions: in vitro
T1 construct: metabolism of radioactively labelled arachidonic acid by washed human platelets; endogenous in cells; host or cells: washed human platelets
T1 sequence (P18054 1-663): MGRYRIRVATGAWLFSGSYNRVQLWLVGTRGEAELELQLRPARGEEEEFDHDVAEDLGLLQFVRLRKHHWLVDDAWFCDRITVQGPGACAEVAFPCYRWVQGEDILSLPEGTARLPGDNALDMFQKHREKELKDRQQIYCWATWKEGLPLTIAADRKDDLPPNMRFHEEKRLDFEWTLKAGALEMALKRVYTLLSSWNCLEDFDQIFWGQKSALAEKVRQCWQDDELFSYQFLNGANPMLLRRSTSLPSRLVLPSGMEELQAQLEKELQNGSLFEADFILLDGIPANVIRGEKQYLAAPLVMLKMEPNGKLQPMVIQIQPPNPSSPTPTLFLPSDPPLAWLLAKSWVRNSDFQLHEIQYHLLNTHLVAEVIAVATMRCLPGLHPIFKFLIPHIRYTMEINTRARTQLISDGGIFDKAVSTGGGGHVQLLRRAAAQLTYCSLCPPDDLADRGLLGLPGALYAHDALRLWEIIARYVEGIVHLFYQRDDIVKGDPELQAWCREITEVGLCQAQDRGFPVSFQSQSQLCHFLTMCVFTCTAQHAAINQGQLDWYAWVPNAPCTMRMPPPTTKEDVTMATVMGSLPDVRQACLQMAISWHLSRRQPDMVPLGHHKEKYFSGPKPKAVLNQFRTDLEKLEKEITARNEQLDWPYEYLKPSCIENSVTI
Description: In this test method, the metabolism of radioactively labelled arachidonic acid by washed human platelets is investigated. In this in vitro test, the radioactively labelled metabolites are extracted from the reaction mixture and separated by thin layer chromatography. The autoradiogram is evaluated on the thin layer scanner. Under these test conditions, the labelled metabolites are separated from the unreacted arachidonic acid and can subsequently be quantitatively evaluated. The distribution of the radioactivity in the cyclooxygenase products, formed during metabolism, thomboxane B2 (TXB2) and 12-hydroxy-5,8,10-heptadecatrienic acid (HHT) and the lipoxygenase product 12-hydroxy-5,8,11,14-eicosatetraenoic acid (HETE) as influenced by the inhibitors, gives a measure of the inhibition of the enzymes.
The inhibition of lipoxygenase by the sulphenamides which can be used according to the invention can be measured by the inhibition of the synthesis of HETE. […] Inhibition of the platelet lipoxygenase (synthesis of HETE)

[1] = tested on: lipoxygenase / cyclooxygenase; conditions: prior art; cited from earlier work

| Structure (SMILES) | inhibition in vivo at 10 mg (leucocytes (migration)) | Minimum effective inhibitory concentration (at least 50% inhibition) (platelet lipoxygenase) | further results |
| --- | --- | --- | --- |
| O=C1c2ccc([N+](=O)[O-])cc2C(=O)N1Sc1ccc(Cl)cc1 [Example 38] | 56% |  |  |
| O=C1CCCN1Sc1ccc(Cl)cc1 [Example 53] |  | 10^-6 g/ml |  |
| O=c1c2cc3c(=O)n(Sc4ccccc4)c(=O)c3cc2c(=O)n1Sc1ccccc1 [Example 45] | 40% |  |  |
| O=C1CCN(c2ccccc2)N1 [phenidone] |  |  | activity of known inhibitors of lipoxygenase, in words [1]: either simultaneously active as inhibitors of cyclooxygenase, or only active at very high concentrations |
| CC1(C)OC(C)(C)N(Sc2ccc(Cl)cc2)C1=O [Example 15] | 47% |  |  |
| c1ccc2c(c1)ncn2SC1CCCCC1 [Example 80, 1-cyclohexylthiobenzimidazole] |  | 1e-05 g/mL |  |
| O=C1c2ccccc2S(=O)(=O)N1Sc1ccccc1 [Example 60] |  | 3e-06 g/mL |  |
| O=C1CCCN1Sc1ccccc1 [Example 52] | 76% | 10^-6 g/ml |  |
| O=C1CCN(c2ccccc2)N1Sc1ccc(Cl)cc1 [Example 72] |  | 10^-6 g/ml |  |
| c1ccc(CNSc2nnnn2-c2ccccc2)cc1 [Example 10] | 26% |  |  |
| O=C1c2ccccc2C(=O)N1Sc1ccccc1 [Example 29] | 48% | 10^-6 g/ml |  |
| CC(Cc1ccc(O)c(O)c1)C(C)Cc1ccc(O)c(O)c1 (centres unmarked) [nordihydroguaiaretic acid] |  |  | activity of known inhibitors of lipoxygenase, in words [1]: either simultaneously active as inhibitors of cyclooxygenase, or only active at very high concentrations |
| O=C1C(=O)N(Sc2ccccc2)c2ccccc21 [Example 68] |  | 3e-06 g/mL |  |
| Nc1ncn(Sc2ccc(Cl)cc2)n1 [Example 3] |  | 10^-6 g/ml |  |
| Clc1ccc(SNc2nnc(N3CCOCC3)s2)cc1 [Example 5] | 22% |  |  |
| O=C1CCCN1Sc1cc(C(F)(F)F)ccc1Cl [Example 21] | 44% |  |  |
| O=C1CCCCCCCCCCN1Sc1ccccc1 [Example 58] | 78% |  |  |
| O=c1oc2ccccc2c(=O)n1SC1CCCCC1 [Example 76] |  | 3e-06 g/mL |  |
| CC(C)(C)c1ccc(SN2CCCCCC2=O)cc1 [Example 57] |  | 10^-5 g/ml |  |
| Cc1ccc(SN2C(=O)c3ccccc3C2=O)cc1 [Example 31] | 43% | 3e-06 g/mL |  |
| COC(=O)c1ccc(SN2CCCC2=O)cc1 [Example 22] | 64% |  |  |
| Clc1ccc(Sn2cccn2)cc1 [Example 75] |  | 3e-06 g/mL |  |
| O=C1CCCCCN1Sc1ccc(Cl)cc1 [Example 56] | 86% | 3e-06 g/mL |  |

| Structure (SMILES) | inhibition in vivo at 10 mg (leucocytes (migration)) | Minimum effective inhibitory concentration (at least 50% inhibition) (platelet lipoxygenase) | further results |
| --- | --- | --- | --- |
| O=c1n(Sc2ccccc2)c(=O)n2c(=O)n(Sc3ccccc3)c(=O)n12 [Example 18] | 41% | 3e-06 g/mL |  |
| CCCCCC#CCC#CCC#CCC#CCCCC(=O)O [5,8,11,14-eicosatetrainoic acid] |  |  | activity of known inhibitors of lipoxygenase, in words [1]: either simultaneously active as inhibitors of cyclooxygenase, or only active at very high concentrations |
| CC(C)(C)c1ccc(SN2C(=O)c3c(Cl)c(Cl)c(Cl)c(Cl)c3C2=O)cc1 [Example 43] |  | 3e-06 g/mL |  |
| O=C1CCCCCN1Sc1ccccc1 [Example 55] | 78% | 10^-6 g/ml |  |
| O=C1C(=O)N(Sc2ccc(Cl)cc2)c2ccccc21 [Example 69] | 20% |  |  |
| c1ccc(-n2nnnc2SNc2nc[nH]n2)cc1 [Example 11] | 22% |  |  |
| O=C1c2cccc3cccc(c23)C(=O)N1Sc1ccccc1 [Example 47] | 21% |  |  |
| CC(C)(C)c1ccc(SN2C(=O)c3ccccc3C2=O)cc1 [Example 35] |  | 3e-06 g/mL |  |
| Cc1ccc(Sn2cnc(N)n2)cc1 [Example 4] | 61% |  |  |
| CC(C)(C)c1ccc(SN2CCCC2=O)cc1 [Example 54] |  | 10^-6 g/ml |  |
| O=C1c2ccccc2C(=O)N1SC1CCCCC1 [Example 32] | 38% | 3e-06 g/mL |  |
| CCC(C)Sn1cnc2ccccc21 (centres unmarked) [Example 84] |  | 1e-05 g/mL |  |
| O=C1c2ccc([N+](=O)[O-])cc2C(=O)N1Sc1ccccc1 [Example 36] | 64% |  |  |
| Cc1ccc(SN2C(=O)C(C)(C)OC2(C)C)cc1 [Example 16] | 40% |  |  |
| O=C1c2c(Cl)c(Cl)c(Cl)c(Cl)c2C(=O)N1Sc1ccccc1 [Example 42] |  | 3e-06 g/mL |  |
| O=C1c2ccccc2C(=O)N1Sc1ccc(Cl)cc1 [Example 30] |  | 3e-06 g/mL |  |
| Nc1ncn(Sc2ccccc2)n1 [Example 2] | 70% | 10^-6 g/ml |  |
| O=C1c2ccc([N+](=O)[O-])cc2C(=O)N1Sc1ccc(Cl)cc1 [Example 40] |  | 3e-06 g/mL | Inhibition of the migration of leucocytes (control = 0%) (leucocytes (migration)): 41% |
| O=C1CCCN1Sc1ccc(Cl)c(C(F)(F)F)c1 [Example 20] | 64% |  |  |
| O=C1c2ccc([N+](=O)[O-])cc2C(=O)N1Sc1ccccc1 [Example 39] |  | 10^-6 g/ml |  |
| O=C1c2ccccc2S(=O)(=O)N1Sc1ccc(Cl)cc1 [Example 61] |  | 10^-6 g/ml |  |
| CC1=NN(Sc2ccccc2)C(=O)C1 [Example 74] | 52% | 10^-6 g/ml |  |
| CC(C)(C)c1ccc(SN2C(=O)c3ccccc3S2(=O)=O)cc1 [Example 62] |  | 3e-06 g/mL |  |
